Data on six substances can be found in patent US20130336950A1, “MATERIAL COMBINATION FOR TREATING INFLAMMATORY OR INFECTIOUS DISEASES” (priority 2010, published 2013).

Entries after “also recorded” stand apart in the source; their conditions may differ. Ends that are not written are not given here.

Data set [1] has as its system Bifidobacterium adolescentis. As to the kind of experiment: antimicrobial radial diffusion assay, Bif. adolescentis, with and without DTT. Type of data set: cell-based. The settings on record: for antimicrobial activity (diameter of the inhibition zones): anaerobic, 48 h. The protocol: (§1) During execution of the assay in 10 mM sodium phosphate with 0.3 mg/ml of trypticase soya broth (TSB) and 1% (w/v) agarose with low EEO (Sigma-Aldrich), incubation took place in anaerobic conditions with antimicrobial peptides and 0-2 mM DTT. The presence of a reducing environment was controlled by adding the redox indicator resazurin. After 48-h incubation, the diameter of the inhibition zones was measured and was evaluated statistically using GraphPad Prism 4.03 and Student's t-test.
(§2) Small concentrations of the reducing agent dithiothreitol (DTT) were added to the assay medium, whereas medium without DTT served as control.

The test system of data set [2] is Bifidobacterium adolescentis, Bif. breve, Bif. longum and Bif. bifidum. As to the kind of experiment: radial diffusion assay, oxidized and reduced peptide against Bifidobacterium spp. Type of data set: cell-based. Particulars: oxidized or reduced peptide 1.5 μg, anaerobic, medium without DTT, 48 h. The protocol: as §1
(§3) (FIG. 3A). […] Furthermore, the same assay was carried out with the Gram-positive strains Lactobacillus acidophilus and L. fermentum, and with the Gram-negative strain Bacteroides vulgatus and the facultatively anaerobic strain Escherichia coli K12 (FIG. 3B).

Data set [3] deals with Candida albicans. As to the kind of experiment: flow cytometry assay, depolarized yeasts, clinical Candida isolates. Type of data set: cell-based. Particulars: 40 μg/ml, 90-minute incubation, 5 clinical isolates. The method, then:
(A) 1.5 μg oxidized and reduced hBD-1 was incubated with Bifidobacterium spp., Lactobacillus spp., Bacteroides vulgatus (B) and Escherichia coli. For Lactobacilli, the amount of defensin was 3 μg. The formation of inhibition zones was investigated after 48 hours, representative radial diffusion assays from 3 experiments are shown. […] The proportion of depolarized yeasts after 90-minute incubation with reduced or oxidized hBD-1, measured with a flow cytometry assay, is shown. hBD-1 red=reduced hBD-1, hBD-1 ox=oxidized hBD-1. The mean values+standard deviation of two experiments, carried out in each case in duplicate, are shown, (D) cysteine amino acids in the hBD-1 peptide were exchanged for alanine or serine and the hydrophobicity of the hBD-1 variants was analyzed by RP-HPLC. (E) flow cytometry assay for detecting bacterial membrane depolarization of Bifidobacterium adolescentis after incubation with reduced or oxidized hBD-1. Squares show an incubation time of 30 minutes, circles a time of 90 minutes. […] Fixed bacteria were analyzed by transmission microscopy, magnification bars=200 nm.
Flow-cytometry antimicrobial assay, in which the membrane depolarization of the bacteria was measured, was carried out as described in: Nuding, S., et al., “Antibacterial activity of human defensins on anaerobic intestinal bacterial species: a major role of HBD-3.” Microbes. […]
Background: Flow cytometry measures light scatter and fluorescence of single cells or particles in a stream.

Data set [4] has as its system Bifidobacterium adolescentis. Description: flow-cytometry antimicrobial assay, bacterial membrane depolarization. Type of data set: cell-based. The method, then: Flow-cytometry antimicrobial assay, in which the membrane depolarization of the bacteria was measured, was carried out as described in: Nuding, S., et al., “Antibacterial activity of human defensins on anaerobic intestinal bacterial species: a major role of HBD-3.” Microbes. Infect. 11 (3), 384-393 (2009).
In order to investigate whether the observed inhibition of growth of Gram-positive anaerobes is bacteriostatic or bactericidal, flow-cytometry antimicrobial assays were carried out with bacterial membrane depolarization as the reading system. […] This pointed to a rapid bactericidal effect of the linear hBD-1.

The test system of data set [5] is Bacteroides vulgatus. As to the kind of experiment: antimicrobial radial diffusion assay, Bacteroides vulgatus. Type of data set: cell-based. The settings on record: 48 h. The protocol:
as §1, §2

For data set [6], the system named is Escherichia coli K12. Description: radial diffusion assay, Escherichia coli K12. Type of data set: cell-based. The settings on record: oxidized or reduced peptide 1.5 μg, medium without DTT, 48 h. The protocol: as §1, §3
In data set [7] the test system is Bifidobacterium adolescentis Ni3,29c. As to the kind of experiment: transmission electron microscopy of the bacteria. Type of data set: cell-based. The settings on record: 200 μg/ml, 2 hours, 37° C., anaerobic. The protocol: For transmission electron microscopy of the bacteria, approx. 2×10^8 CFU (colony forming units) of Bifidobacterium adolescentis Ni3,29c were incubated anaerobically for two hours at 37° C. in the absence or in the presence of 200 μg/ml synthetic defensin. The bacteria were centrifuged, fixed in prewarmed Karnovsky's solution and stored at 4° C. for 24 hours. After centrifugation, the pellet was embedded in 3.5% agarose at 37° C., coagulated at room temperature, cut into small blocks and fixed in Karnovsky's solution again. The post-fixing was based on 1.0% osmium tetroxide with 1.5% potassium ferrocyanide in 0.1 M cacodylate buffer. After embedding in glycidyl ether, the blocks were cut with an ultramicrotome (Ultracut, Reichert, Vienna, Austria). Ultrathin sections (30 nm) were applied on copper grids and analyzed with a Zeiss LIBRA 120 transmission electron microscope (Carl Zeiss, Oberkochen, Germany) at 120 kV.

Data set [8] is described as follows: RP-HPLC analysis of hydrophobicity. Type of data set: physicochemical. Particulars: water/acetonitrile gradient; reduced hBD-1 vs oxidized hBD-1, variants vs reduced hBD-1. The source says: For the high-performance liquid chromatography (HPLC) analysis, a system of the Agilent 1200 series and a Vydac 218TP-C18 column were used, using a water/acetonitrile gradient with trifluoroacetic acid as ion-pair reagent.

For data set [9], the system named is Lactobacillus acidophilus and L. fermentum. Description: radial diffusion assay, Lactobacilli. The settings on record: oxidized or reduced peptide 3 μg, medium without DTT, 48 h. Type of data set: cell-based, Lactobacillus spp. The protocol:
as §1, §3

Data set [10] has as its target T1, human thioredoxin (Homo sapiens, UniProt P10599).
T1 sequence (P10599 1-105): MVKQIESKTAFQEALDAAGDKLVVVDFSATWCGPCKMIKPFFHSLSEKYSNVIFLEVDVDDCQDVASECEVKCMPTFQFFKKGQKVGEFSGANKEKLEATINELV
Description: thioredoxin reductase assay (reduction of hBD-1, RP-HPLC). Type of data set: biochemical. The settings on record: 10 μM hBD-1, 0.5-1.5 μM thioredoxin, 100 nM thioredoxin reductase, 0.8 mM NADPH, 30 minutes, 37° C. The protocol:
FIG. 4 Thioredoxin (TRX) co-localized with hBD-1 and is capable of catalyzing the reduction of hBD-1. (A) immuno-histochemistry staining of hBD-1 and thioredoxin of human colon sections. Magnification bars=100 μm. (B) 10 μM oxidized hBD-1 was incubated with or without 0.5, 1.0 and 1.5 μM human thioredoxin and 100 nM rat thioredoxin reductase for 30 minutes at 37° C. in 0.10 M potassium phosphate-2 mM EDTA, pH 7.0 buffer and 0.8 mM NADPH. Incubation assays were analyzed by RP-HPLC and the transformation of oxidized to reduced hBD-1 was observed. hBD-1 ox=oxidized hBD-1, hBD-1 red=reduced hBD-1. […] Formation of inhibition zones was investigated after incubation for 48 hours, representative assays are shown.
The thioredoxin reductase assay was carried out as follows: For this, oxidized hBD-1 was incubated with 0.5-1.5 μM thioredoxin or protein disulfide-isomerase in the presence of 100 nM thioredoxin reductase and 0.8 mM NADPH in 0.1 M […] phosphate buffer-2 mM EDTA. The incubation mixtures were analyzed by RP-HPLC, with which the transformation of oxidized to reduced hBD-1 peptide could be observed.

The mark [11] stands for this setting: reducing conditions (DTT added, 1 mM or 2 mM).
Where [12] appears, read: 30 minutes of incubation, 60 μg/μl.
[13] abbreviates: oxidized or reduced peptide 1.5 μg, medium without DTT.
The mark [14] stands for this setting: with or without DTT (1 mM or 2 mM), 0.5-2.0 μg peptide.

In the case of “hBD-1Δ30-36: shortened variant of hBD-1 without the seven C-terminal amino acids GKAKCCK (SEQ ID No. 1) (DHYNCVSSGGQCLYSACPIFTKIQGTCYR; ends and bridges not checked; cysteine pairing not given here; UniProt P60022 33-61, looked up, fragment)”, the “antimicrobial activity (diameter of the inhibition zones)” value in [1] (medium without DTT) and in data set [1] (setting [11]) was “unable to inhibit the growth” each time.

For “reduced hBD-1: fully reduced, linear hBD-1 with free cysteine residues (DHYNCVSSGGQCLYSACPIFTKIQGTCYRGKAKCCK; Beta-defensin 1 reduced, free cysteines; UniProt P60022 33-68, looked up)”, the “antimicrobial activity (inhibition zones)” value in [2] is “antimicrobial activity against all the strains tested”; in [5] (setting [13]) it was “no effect”; in [6], “antimicrobial activity”; in data set [9], “clear inhibition zones”. In addition, the “antifungal activity (proportion of depolarized yeasts)” value in data set [3] was “active against 4 out of 5 clinical Candida isolates; also recorded: effective antifungal activity against four out of five strains”. Moreover, in data set [4] (setting [12]), the “membrane depolarization of the bacteria” value is 50%. The “effectiveness compared with the oxidized form” value in data set [4] (flow cytometry, membrane depolarization) is “more effective”. Besides, in [7], the “morphology of the bacterial cells” value is reported as “cellular disintegration”. Further, in [8], the “hydrophobicity (RP-HPLC)” value is reported as “more hydrophobic; also recorded: increase in the hydrophobicity”.

On to “oxidized hBD-1: fully oxidized hBD-1 possessing all disulfide bridges (DHYNCVSSGGQCLYSACPIFTKIQGTCYRGKAKCCK; disulfide (positions not given here); also: three disulfides, pairing not given here)”, for which the “antimicrobial activity (inhibition zones)” value was “did not show any antimicrobial activity” in data set [2], “no effect” in data set [5] (setting [13]), “antimicrobial activity; also recorded: sensitive” in data set [6] and “no effect at all” in data set [9]. In [3], the “antifungal activity (proportion of depolarized yeasts)” value was “no action and not”. For the same substance, the “membrane depolarization of the bacteria” value in [4] (setting [12]) and in [4] (90 minutes of incubation) was “no significant depolarization” throughout. In addition, in data set [7], the “morphology of the bacterial cells” value was “did not show morphological damage of any kind”.

With “human beta-defensin 3 (GIINTLQKYYCRVRGGRCAVLSCLPKEEQIGKCSTRGRKCCRRKK; UniProt P81534 23-67, looked up) [hBD-3, reference compound]”, the “antimicrobial activity (inhibition zones)” value in data set [5] (setting [14]) is “concentration-dependent inhibition zones”. The “antimicrobial activity (diameter of the inhibition zones)” value in [1] (medium without DTT) is listed as “strong antimicrobial activity”; in data set [1] (setting [11]) it was “slightly reduced antimicrobial activity; also recorded: reduced activity”. In data set [7], the “morphology of the bacterial cells” value is recorded as “mainly attacks the bacterial membrane”.

lysozyme [reference compound]: in [1] (setting [11]), the “antimicrobial activity (diameter of the inhibition zones)” value is recorded as “slightly reduced antimicrobial activity”.

As for “human beta-defensin 1 (DHYNCVSSGGQCLYSACPIFTKIQGTCYRGKAKCCK; disulfide (positions not given here); also: three disulfides, pairing not given here) [hBD-1, synthetic human beta-defensin 1, antimicrobial peptide with three disulfide bridges]”, the “antimicrobial activity (inhibition zones)” value in [5] (setting [14]) is listed as “did not show any antimicrobial activity; also recorded: growth-inhibiting effect was not observed”. The “antimicrobial activity compared with hBD-3” value in data set [1] (2 mM DTT) is “as effective as hBD-3”. Also, the antimicrobial activity entry in data set [1] (in the presence of 150 mM sodium chloride (data not shown)) is reported as “disappeared”. Further, the “antimicrobial activity (diameter of the inhibition zones)” value in data set [1] (medium with 1 mM DTT) is reported as “concentration-dependent inhibition zones”; in data set [1] (medium without DTT), “no effect on the growth”; in data set [1] (setting [11]), “antimicrobial activity only through reduction”. Moreover, in [10], the “transformation of oxidized to reduced hBD-1” value is recorded as “reduced by thioredoxin”.
